Measurements taken from patent publication US6465457B1 (priority 1991, dated 2002).
Where two headings read alike, the source gives them in different places.

Columns and labels:
Format in all cases: in vivo
[1] = system: Thanatephorus cucumeries (Rice); experiment: Foliar fungal disease test on plants: Thanatephorus cucumeries (Rice); conditions: one or two days before inoculation
[2] = system: Erysiphe graminis tritici (Wheat); experiment: Foliar fungal disease test on plants: Erysiphe graminis tritici (Wheat); conditions: plants inoculated 24 hours before treatment
Septoria nodorum (Wheat) = experiment: Foliar fungal disease test on plants: Septoria nodorum (Wheat); conditions: one or two days before inoculation
[3] = system: Phytophthora infestans (Tomatoes); conditions: one or two days before inoculation
[4] = system: Pyricularia oryzae (Rice); conditions: one or two days before inoculation
[5] = system: Venturia inaequalis (Apples); experiment: Foliar fungal disease test on plants: Venturia inaequalis (Apples); conditions: one or two days before inoculation
[6] = system: Puccinia recondita (Wheat); experiment: Foliar fungal disease test on plants: Puccinia recondita (Wheat)
[7] = system: Plasmopara viticola (Vines); experiment: Foliar fungal disease test on plants: Plasmopara viticola (Vines); conditions: one or two days before inoculation
[8] = 10 ppm foliar spray only, plants inoculated with Puccinia recondita 48 hours before treatment
[9] = 100 ppm a.i. foliar spray or root drench (approx. 40 ppm in dry soil)
[10] = 100 ppm a.i. foliar spray or root drench, plants inoculated with Puccinia recondita 48 hours before treatment

Compound | POCO (Percentage of Control) disease level, Thanatephorus cucumeries (Rice) ([1]; 10 ppm foliar spray only) | POCO (Percentage of Control) disease level, Erysiphe graminis tritici (Wheat) ([2]; 10 ppm foliar spray only) | POCO (Percentage of Control) disease level, Septoria nodorum (Wheat) (Septoria nodorum (Wheat); 10 ppm foliar spray only) | POCO (Percentage of Control) disease level, Phytophthora infestans (Tomatoes) ([3]; 10 ppm foliar spray only) | POCO (Percentage of Control) disease level, Pyricularia oryzae (Rice) ([4]; 10 ppm foliar spray only) | POCO (Percentage of Control) disease level, Venturia inaequalis (Apples) ([5]; 10 ppm foliar spray only) | POCO (Percentage of Control) disease level, Puccinia recondita (Wheat) [6, 8] | POCO (Percentage of Control) disease level, Plasmopara viticola (Vines) ([7]; 10 ppm foliar spray only) | POCO (Percentage of Control) disease level, Thanatephorus cucumeries (Rice) [1, 9] | POCO (Percentage of Control) disease level, Erysiphe graminis tritici (Wheat) [2, 9] | POCO (Percentage of Control) disease level, Septoria nodorum (Wheat) (Septoria nodorum (Wheat); [9]) | POCO (Percentage of Control) disease level, Phytophthora infestans (Tomatoes) [3, 9] | POCO (Percentage of Control) disease level, Pyricularia oryzae (Rice) [4, 9] | POCO (Percentage of Control) disease level, Venturia inaequalis (Apples) [5, 9] | POCO (Percentage of Control) disease level, Puccinia recondita (Wheat) [6, 10] | POCO (Percentage of Control) disease level, Plasmopara viticola (Vines) [7, 9] | POCO (Percentage of Control) disease level, Puccinia recondita (Wheat) ([6]; 100 ppm a.i. foliar spray or root drench (approx. 40 ppm in dry soil), one or two days before inoculation)
COC=C(C(=O)OC)c1ccccc1COC(=O)N1CCc2ccccc21 [5 (133)] | 90 (90 and 94 = 60.1-100% disease present) | 60 (60 = 30.1-60% disease present) | 90 (90 and 94 = 60.1-100% disease present) | 90 (90 and 94 = 60.1-100% disease present) | 90 (90 and 94 = 60.1-100% disease present) | 90 (90 and 94 = 60.1-100% disease present) | 90+ (90 and 94 = 60.1-100% disease present) | 90 (90 and 94 = 60.1-100% disease present) |  |  |  |  |  |  |  |  | 
COC=C(C(=O)OC)c1ccccc1COC(=O)n1ccc2ccccc21 [1 (133)] | 60 (60 = 30.1-60% disease present) | 90 (90 and 94 = 60.1-100% disease present) | 90 (90 and 94 = 60.1-100% disease present) | 90 (90 and 94 = 60.1-100% disease present) | 90 (90 and 94 = 60.1-100% disease present) | 30 (30 = 20.1-30% disease present) | 90+ (90 and 94 = 60.1-100% disease present) | 0 (0 = 0% disease present) |  |  |  |  |  |  |  |  | 
COC=C(C(=O)OC)c1ccccc1COC(=O)Nc1ccccc1OC [16 (1)] |  |  |  |  |  |  |  |  | 90 (90 and 94 = 60.1-100% disease present) | 90 (90 and 94 = 60.1-100% disease present) | 90 (90 and 94 = 60.1-100% disease present) | 90 (90 and 94 = 60.1-100% disease present) | 20 (20 and 24 = 10.1-20% disease present) | 60 (60 = 30.1-60% disease present) | 90+ (90 and 94 = 60.1-100% disease present) | 0 (0 = 0% disease present) | 
COC=C(C(=O)OC)c1ccccc1COC(=O)N(C)c1ccccc1C(=O)OC [33 (2)] |  |  |  |  |  |  |  |  | 60 (60 = 30.1-60% disease present) | 0 (0 = 0% disease present) | 90 (90 and 94 = 60.1-100% disease present) | 90 (90 and 94 = 60.1-100% disease present) | 30 (30 = 20.1-30% disease present) | 60 (60 = 30.1-60% disease present) | 90+ (90 and 94 = 60.1-100% disease present) | 10 (10 = 5.1-10% disease present) | 
COC=C(C(=O)OC)c1ccccc1COC(=O)N(C)c1cccc(F)c1 [8 (2)] |  |  |  |  |  |  |  |  | 0 (0 = 0% disease present) | 0 (0 = 0% disease present) | 0 (0 = 0% disease present) | 0 (0 = 0% disease present) | 0 (0 = 0% disease present) | 0 (0 = 0% disease present) | 0+ (0 = 0% disease present) | 0 (0 = 0% disease present) | 
COC=C(C(=O)OC)c1ccccc1COC(=O)N(C)c1c(F)cccc1F [23 (2)] |  |  |  |  |  |  |  |  | 0 (0 = 0% disease present) | 0 (0 = 0% disease present) | 0 (0 = 0% disease present) | 0 (0 = 0% disease present) | 0 (0 = 0% disease present) | 0 (0 = 0% disease present) | 0+ (0 = 0% disease present) | 0 (0 = 0% disease present) | 
COC=C(C(=O)OC)c1ccccc1COC(=O)N(Cc1ccccc1)c1cccc(F)c1 [8 (97)] |  |  |  |  |  |  |  |  | 90 (90 and 94 = 60.1-100% disease present) | 90 (90 and 94 = 60.1-100% disease present) | 90 (90 and 94 = 60.1-100% disease present) | 90 (90 and 94 = 60.1-100% disease present) | 30 (30 = 20.1-30% disease present) | 30 (30 = 20.1-30% disease present) | 90+ (90 and 94 = 60.1-100% disease present) | 0 (0 = 0% disease present) | 
COC=C(C(=O)OC)c1ccccc1COC(=O)N(C)c1ccccc1OC [16 (2)] |  |  |  |  |  |  |  |  | 5 (5 = 3.1-5% disease present) | 0 (0 = 0% disease present) | 5 (5 = 3.1-5% disease present) | 20 (20 and 24 = 10.1-20% disease present) | 0 (0 = 0% disease present) | 1 (1 = 0.1-1% disease present) | 10+ (10 = 5.1-10% disease present) | 0 (0 = 0% disease present) | 
COC=C(C(=O)OC)c1ccccc1COC(=S)Nc1cccc(C(F)(F)F)c1 [2 (6)] |  |  |  |  |  |  |  |  | 90 (90 and 94 = 60.1-100% disease present) | 60 (60 = 30.1-60% disease present) | 60 (60 = 30.1-60% disease present) | 60 (60 = 30.1-60% disease present) | 5 (5 = 3.1-5% disease present) | 3 (3 = 1.1-3% disease present) |  | 30 (30 = 20.1-30% disease present) | 30 (30 = 20.1-30% disease present)
